Data on six compounds can be found in US8026208B2, “Peptide tyrosinase inhibitors and uses thereof” (The Board of Trustees of the Leland Stanford Junior …, priority 2007, dated 2011).

No end group written: not given here.

Data set [1] concerns the target T1, cellular tyrosinase activity of melanocytes (Homo sapiens, UniProt P14679).
T1 construct: Primary human melanocytes were kindly obtained from Dr. Todd Ridky; endogenous in cells; host or cells: primary human melanocytes (passage 3)
T1 sequence (P14679 19-529): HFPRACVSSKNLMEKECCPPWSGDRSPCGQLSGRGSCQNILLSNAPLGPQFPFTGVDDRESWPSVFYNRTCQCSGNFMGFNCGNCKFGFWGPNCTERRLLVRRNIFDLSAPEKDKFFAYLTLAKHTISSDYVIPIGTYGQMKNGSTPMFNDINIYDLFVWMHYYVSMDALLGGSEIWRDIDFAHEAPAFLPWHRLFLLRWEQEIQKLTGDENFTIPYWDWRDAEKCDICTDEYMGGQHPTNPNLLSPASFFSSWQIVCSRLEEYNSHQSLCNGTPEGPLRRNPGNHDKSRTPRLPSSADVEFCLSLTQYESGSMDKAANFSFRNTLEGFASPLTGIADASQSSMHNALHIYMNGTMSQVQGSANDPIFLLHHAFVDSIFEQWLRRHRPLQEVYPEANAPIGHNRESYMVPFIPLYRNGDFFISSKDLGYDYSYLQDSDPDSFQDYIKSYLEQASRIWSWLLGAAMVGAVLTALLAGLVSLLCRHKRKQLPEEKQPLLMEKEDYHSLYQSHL
The experiment in a line: Assay of cellular tyrosinase activity with L-DOPA as substrate. It counts as cell-based. The note with it: 7 d treatment. As for the experimental part: (§1) Primary human melanocytes were kindly obtained from Dr. Todd Ridky in the department of dermatology, Stanford University. Cells were cultured in Medium 254 (Cascade Biologics) supplemented with Human Melanocyte Growth Supplement (HMGS, Cascade Biologics). They were grown in a humidified atmosphere with 5% CO2 at 37° C. Cell plating densities were arranged that those cells were in log phase of growth for the duration of incubation with test samples. Subcultures of cells were plated at a density of 4×10^4 cells/cm^2. Approximately 24 h later, fresh medium and test samples were added. Cells were harvested 7 d after test samples addition, replaced with fresh medium and test samples every two days.
Human melanocytes were cultured in 6-well plates. After treatment with individual test samples for 7 d, the cells were washed with phosphate-buffered saline (PBS) and lysed with phosphate buffer, pH 6.8, containing 1% Triton X-100. After sonication, lysates were clarified by centrifugation at 10000 g for 10 min. After determination of protein content with a Bio-Rad protein assay kit, lysates were added to 96 well culture plate containing equal amounts of protein (40 μg), and adjusted with lysis buffer to reach 150 μl in each well. 75 μl of 10 mM L-DOPA dissolved in lysis buffer was added to each well. The culture plate was incubated at 37° C. for 30 min, and then read with the spectrophotometer at 475 nm.
Tyrosinase inhibitory activity was calculated with the following formula: tyrosinase inhibition (%)=[1−(O.D.475 of sample/O.D.475 of control)]×100%.
We also examined the inhibitory action of RA peptide on cellular tyrosinase activity of melanocytes, using L-DOPA as substrate. After centrifugation and protein calculation, certain volume of supernatant for each sample was transferred to 96 well culture plate by compensating a certain protein content in each well, and adjusted the volume of each well to 150 μl with 0.067M of phosphate buffer (pH 6.8). 75 μl of 10 mM L-DOPA dissolved in phosphate buffer (pH 6.8) was added to each well. The culture plate was incubated at 37° C. for 30 min, and then read with the spectrophotometer at 475 nm.

Another data set has as its target tyrosinase. The note with it: read-out: published IC50; cited from earlier work.
The test system of the next data set is Human melanocytes. As to the kind of experiment: Melanin content measurement in melanocytes. It is filed as cell-based. Particulars: 10 μM (peptide: similar concentration), 7 days. As for the experimental part:
as §1
Human melanocytes were cultured in 6-well plates and treated with individual test samples for 7 d. After washes in PBS, cells were detached by short incubation in trypsin/EDTA (0.25%/0.1% in PBS). An aliquot was used for cell count. […] Melanin concentrations were calculated by comparison of the OD at 475 nm of unknown samples with a standard curve obtained with synthetic melanin.
To provide more direct evidence that RA peptide inhibits melanogenesis, its effects on melanin production in melanocytes was studied. The contents of melanin in melanocytes treated with no addition, RA peptide or HQ for 7 days were determined with a spectrophotometer and compared with a melanin standard curve. […]

Data set [2] concerns Primary human melanocytes. As to the kind of experiment: Melanocyte proliferation rate. It is filed as cell-based. Particulars: up to 10 μM. As for the experimental part:
as §1
To exclude the possibility that the inhibitory effects of RA peptide on melanogenesis might be caused by the inhibition of cell growth, we compared the number of cells grown in the presence and absence of test samples.

The subject of data set [3] is Primary human melanocytes. It is filed as cell-based. Particulars: 24 h, 100 µM. How it is done:
as §1
Cell viability was determined using WST-1 Cell Proliferation Kit (Roche). Cells were plated at 1×10^5/well (24-well plates). Twenty-four hours after plating, test samples were added and cultures were incubated for an additional 7 d. At the end of the treatment period, 50 μl WST-1 was added to each well. The plates were placed at 37° C. for 4 h in the dark and the absorbance at 450 nm was read using microplate. Usually, 3 replicate wells were measured for each group to be tested. Wells containing medium but no cells served as controls. Cell viability was calculated according to the equation: cell viability=absorbance (sample tested)/absorbance (medium only)×100%. Assay of Cellular Tyrosinase Activity […]

For data set [4], the system named is Mushroom tyrosinase. As to the kind of experiment: Tyrosinase inhibition at single concentration (melanin synthesis evaluation). The note with it: for considered effective in these assays: mushroom tyrosinase and B-16 assays, SF 8 mM, PLG 3 mM. It counts as biochemical. As for the experimental part:
Peptides SF, VL, and PLG-OH were tested, along with controls of kojic acid, a known tyrosinase inhibitor, and licorice extracts, a known tyrosinase inhibitor (See J. Agric. Food Chem., 51 (5), 1201-1207, 2003). Tyrosinase inhibition was measured using mushroom tyrosinase (Sigma Aldrich cat # T3824) and L-tyrosine (Sigma Aldrich cat # T8566) in an assay buffer consisting of phosphate buffer (1.0M, pH 6.8) and 5%, and absolute water. The assay buffer, with test sample concentrations and tyrosinase, was incubated in the dark at room temperature for one hour and absorption was read.

The test system of data set [5] is facial pigmentation of patients with recalcitrant melasma. The experiment in a line: Clinical study in patients with recalcitrant melasma. It counts as in vivo, human. The note with it: peptide in liposomes at 1%. From the text:
Patients with recalcitrant melasma (those that failed over the counter products, or HQ 4% for six months, or Tri-luma® Cream for six months) were randomized and blinded to two treatment groups (vehicle and peptide). Patients applied each product twice per day followed by a sunscreen with a sun protection factor of 30 Qam. Patients were then asked to rate the percentage improvement in their facial pigmentation using a nominal scale of 0-100, with 0 corresponding to no change and 100 corresponding to complete resolution. The results are shown in FIG. 3, in which the PLG-OH peptide is shown to be rated as 40-50% improvement, where vehicle caused no improvement. The peptide was formulated in liposomes at 1%, and the control was the liposomes alone.

In data set [6] the target is Mushroom tyrosinase. The experiment in a line: Mushroom tyrosinase inhibition, colorimetric detection of dopachrome (IC50, kinetics). It is filed as biochemical. The note with it: L-tyrosine substrate, pH 6.8, 37° C., absorbance 475 nm at 30 min. As for the experimental part: Mushroom tyrosinase, L-tyrosine and other chemicals for the enzymatic reaction were obtained from Sigma-Aldrich. […] It is understood that research grade reagents were used for convenience, and it is preferred that the peptides be prepared to pharmaceutical grade purity, greater than 90%, preferably greater than 99% pure. Inhibition of tyrosinase by experimental peptides was determined by calorimetric detection of dopachrome, the reaction product of the substrate L-tyrosine. Mushroom tyrosinase, L-tyrosine, and a potassium phosphate buffer (pH 6.8) were added to 96-well plates containing short sequence peptides dissolved in 5% DMSO and incubated at 37° C. The absorbance at 475 nm was measured using a BIO-TEK plate reader 30 min after reaction initiation. Each experiment was performed in triplicate on 3 separate occasions. The protocol is described in further detail in Piao et al., “Mushroom Tyrosinase Inhibition Activity of Some Chromones,” Chem. Pharm. Bull. 56(3): 309-311 (2002), and in Pomerants, J. Biol. Chem 238:2351-2357 (1963). Enzyme kinetics were calculated using the Michaelis-Menton equation by observing changes in reaction velocity accompanying substrate concentrations of 0.5, 1, 2, and 4 mM L-tyrosine. Once initial reaction velocities were obtained, Lineweaver-Burke plots were created to calculate Km, Vmax, and to determine the mode of enzymatic inhibition.

Data set [7] relates to B16-F10 mouse melanoma cells. As to the kind of experiment: Cell viability by MTT assay in B-16 pigmentation assay. It is filed as cell-based. How it is done:
(§2) The B-16 pigmentation assay used B16-F10 mouse melanoma cells (ATCC CRL-6475) grown in DMEM, DMEM without phenol red, FBS, antibiotics, L-glutamine and other standard components. Cells were counted in a Packard Spectracount (microplate spectrophotometer) filtered at 540 nm and 570 nm. The cells were cultured with growth medium and incubated for 24 hrs. at 37° C. and 10% CO2. Cells were treated with 200 μl of growth medium containing test active ingredient and incubated at 37° C. and 10% CO2. After 7 days, the cells were read at 540 nm using the Packard microplate reader. Cell viability was assessed using the MTT assay (Mosmann T. Rapid colorimetric assay for cellular growth and survival: application to proliferation and cytotoxicity assays. J Immunol Methods. 1983 Dec. 16; 65(1-2):55-63), which is used to determine the number of living cells in a sample.

The test system of data set [8] is B16-F10 mouse melanoma cells. The experiment in a line: B-16 pigmentation assay. Particulars: concentration tested 8 mM, 7 days. It is filed as cell-based. As for the experimental part:
as §2

The nature of data set [9]: Solubility in tyrosinase assay buffer. It counts as physicochemical. Particulars: 8 mM.
Data set [10] can be described thus: Stability testing of 1% peptide solutions by HPLC/MS. Particulars: 1% solution, sealed tube, ambient, HPLC or MS, 4 months.
Procedure: A sixth peptide, VLLK (SEQ ID NO: 3), was used as inner standard for quantitative evaluation of other peptide stability.
HPLC/MS: A 1% solution was prepared for each peptide and sealed in a tube, which was kept in ambient environment. High Performance Liquid Chromatography (HPLC) and Mass Spectroscopy (MS) were tested periodically at an approximate time range of 30 days. A fresh 1% VLLK (SEQ ID NO: 3) solution used as inner standard was prepared on the same day of each test. The amount of each peptide was determined by its peak area relative to that of VLLK (SEQ ID NO: 3).

With `Oc1ccc(O)cc1` [HQ, Hydroquinone], in data set [1] (10 μM), the “reduction of cellular tyrosinase activity” value was 28.8%. Further, the 50% inhibitory concentration (IC50) on tyrosinase was approximately 0.7 mM. Also, the melanin content result with Human melanocytes is “slightly reduced”. Moreover, the “inhibitory effects on melanocyte proliferation rates” value in data set [2] is reported as “did not show inhibitory effects”. In [3], this compound had a cell death of 100%.

Consider `O=c1cc(CO)occ1O` [Kojic Acid, 5-hydroxy-2-(hydroxymethyl)-4-pyrone, reference compound], for which the “% Tyrosinase inhibition” value in the data set with Mushroom tyrosinase [4] (concentration tested 0.25%) amounted to 94%.

Consider “PLG-OH [tripeptide PLG with native amino and carboxy termini, distinguished from PLG-NH2]”, for which the “% Tyrosinase inhibition” value in the data set with Mushroom tyrosinase [4] (concentration tested 3 mM) came to 6%. For the same compound, the “considered effective in these assays” value in the data set on Mushroom tyrosinase [4] is listed as “Neither SF peptide nor PLG was considered effective”. In addition, in data set [5] (4-month exposure), the “side effects (erythema, scaling, contact dermatitis reaction, comedone formation)” value is recorded as “no side effects”. In addition, in [5] (patient-rated scale 0-100, applied twice per day), the “percentage improvement in facial pigmentation” value was 40-50%. Half-maximal inhibition against Mushroom tyrosinase [6] (IC50) required 2.73 mM. Further, the “cytotoxicity (printed in the % Depigmentation column)” value in [7] (concentration tested 3 mM) is listed as “cyto-toxic”.

Regarding RADSRADC [RA peptide, RADSRADC], the “reduction of cellular tyrosinase activity” value in data set [1] (1 μM) is 1.2%; in [1] (10 μM) it was 15.6%; in data set [1] (100 μM), 21.1%. Besides, the Viability result in data set [7] (150, 300 and 450 uM) is recorded as “not significantly affected”.

Take SFLLRN [SF peptide]: the “considered effective in these assays” value in the data set on Mushroom tyrosinase [4] was “Neither SF peptide nor PLG was considered effective”. For the same compound, in data set [8], the “% Depigmentation (B-16 Assay)” value was 0%. Besides, the solubility in buffer entry in data set [9] is given as “ND (insoluble”. Also, in [10], the degradation result is reported as “did not show degradation”.

For VLLK [VL peptide, reference compound], at Mushroom tyrosinase [6], the “IC50 (result in words)” value is recorded as “no effect”.
